Data as given in US20080234262A1 (Wyeth, priority 2007, published 2008).
Read-outs that look alike come from different tables or passages of the source.

How the values were obtained:
PI3K = PI3K (Homo sapiens, UniProt P42336); experiment: Fluorescence polarization assay for PI3K; assay type: biochemical;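 also: PI3K kinase reaction on PIP2 with ATP, 30-60 min, product sensed by GST-GRP with red probe in fluorescence polarization (mP), controls without enzyme and at zero time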
prostate line LNCap = experiment: In vitro cell culture growth assay (MTS), LNCap; assay type: cell-based, human; settings: LNCap cells, three days after drug treatment
breast line MDA468 = experiment: In vitro cell culture growth assay (MTS), MDA468; assay type: cell-based, human; settings: MDA468 cells, three days after drug treatment
Procedure, shortened: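 MDA468 or LNCap cells received inhibitors one day after plating and were grown for three days. Viable cell density read by MTS conversion, absorbance 490 nm, expressed as percent of control growth versus vehicle-treated cells on the same plate.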

Chain of PI3K (P42336 whole entry): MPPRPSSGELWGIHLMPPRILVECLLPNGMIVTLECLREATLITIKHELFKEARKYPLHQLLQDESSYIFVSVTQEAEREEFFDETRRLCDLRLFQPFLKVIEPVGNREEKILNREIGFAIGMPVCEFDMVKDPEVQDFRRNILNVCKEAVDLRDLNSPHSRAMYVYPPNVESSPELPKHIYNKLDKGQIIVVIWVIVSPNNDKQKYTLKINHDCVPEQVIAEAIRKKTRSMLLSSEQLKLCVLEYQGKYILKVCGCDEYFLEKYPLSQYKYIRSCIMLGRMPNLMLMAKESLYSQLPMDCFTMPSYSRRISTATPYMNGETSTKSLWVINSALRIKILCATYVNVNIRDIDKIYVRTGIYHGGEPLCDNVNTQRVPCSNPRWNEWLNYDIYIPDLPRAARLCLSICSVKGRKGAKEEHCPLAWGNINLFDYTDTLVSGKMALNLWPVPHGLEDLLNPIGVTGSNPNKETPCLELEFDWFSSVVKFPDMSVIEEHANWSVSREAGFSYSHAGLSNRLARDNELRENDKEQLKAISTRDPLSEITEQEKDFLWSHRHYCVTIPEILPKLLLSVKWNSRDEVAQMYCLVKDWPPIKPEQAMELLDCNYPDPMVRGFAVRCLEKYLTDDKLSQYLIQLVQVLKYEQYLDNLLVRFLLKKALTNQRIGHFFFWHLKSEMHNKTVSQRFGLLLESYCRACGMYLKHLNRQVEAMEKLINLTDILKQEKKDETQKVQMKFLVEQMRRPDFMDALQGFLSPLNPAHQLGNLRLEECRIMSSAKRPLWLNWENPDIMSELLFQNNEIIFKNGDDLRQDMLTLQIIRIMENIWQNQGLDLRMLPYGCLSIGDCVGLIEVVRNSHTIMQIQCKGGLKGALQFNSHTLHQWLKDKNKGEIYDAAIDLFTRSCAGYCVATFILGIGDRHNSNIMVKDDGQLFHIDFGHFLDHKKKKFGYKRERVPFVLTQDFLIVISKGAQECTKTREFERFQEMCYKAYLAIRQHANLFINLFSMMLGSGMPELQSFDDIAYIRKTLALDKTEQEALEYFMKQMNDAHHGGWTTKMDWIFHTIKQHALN
Chain of PI3K (P27986 whole entry partner): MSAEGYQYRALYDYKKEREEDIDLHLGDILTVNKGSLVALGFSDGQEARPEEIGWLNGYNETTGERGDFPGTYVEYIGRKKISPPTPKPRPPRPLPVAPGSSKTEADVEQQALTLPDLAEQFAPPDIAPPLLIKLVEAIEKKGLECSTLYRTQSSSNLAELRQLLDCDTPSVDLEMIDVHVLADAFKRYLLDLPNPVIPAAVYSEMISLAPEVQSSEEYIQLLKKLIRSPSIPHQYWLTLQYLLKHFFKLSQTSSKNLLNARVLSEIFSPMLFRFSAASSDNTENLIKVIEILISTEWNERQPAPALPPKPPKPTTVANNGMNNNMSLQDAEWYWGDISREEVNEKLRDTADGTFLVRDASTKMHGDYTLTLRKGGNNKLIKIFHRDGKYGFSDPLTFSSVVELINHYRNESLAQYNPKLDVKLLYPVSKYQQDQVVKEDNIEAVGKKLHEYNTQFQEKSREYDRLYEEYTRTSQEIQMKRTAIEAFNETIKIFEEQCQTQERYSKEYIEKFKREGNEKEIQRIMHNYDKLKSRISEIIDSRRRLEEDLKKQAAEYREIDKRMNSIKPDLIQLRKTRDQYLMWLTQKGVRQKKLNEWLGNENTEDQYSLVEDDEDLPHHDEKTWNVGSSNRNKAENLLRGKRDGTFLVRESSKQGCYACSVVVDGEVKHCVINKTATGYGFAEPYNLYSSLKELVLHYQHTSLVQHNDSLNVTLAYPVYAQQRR

IC50 (PI3K; PI3Kα, read-out: PI3Kα IC50) [µM] | IC50 (prostate line LNCap; Homo sapiens, LNCaP, 72 h) [µM] | IC50 (prostate line LNCap) [µM] | SMILES | IC50 (breast line MDA468; Homo sapiens, 72 h) [µM] | IC50 (breast line MDA468) [µM] | IC50 (PI3K; PI3Kα IC50, PI3Kα) [µM] | IC50 (prostate line LNCap; Homo sapiens, 72 h) [µM]
0.028 | 0.027 |  | COC(=O)N1CCC(n2ncc3c(N4CCOCC4)nc(-c4ccc(NC(=O)Nc5ccc(F)cc5)cc4)nc32)CC1 [Compound 859, methyl 4-[6-(4-{[(4-fluorophenyl)carbamoyl]amino}phenyl)-4-morpholin-4-yl-1H-pyrazolo[3,4-d]pyrimidin-1-yl]piperidine-1-carboxylate] | 0.078 |  |  | 
3.08 | 60 |  | c1ccc(-n2ncc3c(N4CCOCC4)nc(-c4ccc5sccc5c4)nc32)cc1 [Compound 105] | 60 |  |  | 
0.173 | 0.4 |  | C#CCNC(=O)Nc1ccc(-c2nc(N3CCOCC3)c3cnn(C4CCN(Cc5ccccc5)CC4)c3n2)cc1 [Compound 557, 1-{4-[1-(1-benzylpiperidin-4-yl)-4-morpholin-4-yl-1H-pyrazolo[3,4-d]pyrimidin-6-yl]phenyl}-3-prop-2-yn-1-ylurea] | 3.9 |  |  | 
0.304 | 1 |  | Clc1ccc(CN2CCC(n3ncc4c(N5CCOCC5)nc(-c5ccc6[nH]ccc6c5)nc43)CC2)cn1 [Compound 174, 1-{1-[(6-chloropyridin-3-yl)methyl]piperidin-4-yl}-6-(1H-indol-5-yl)-4-orpholin-4-yl-1H-pyrazolo[3,4-d]pyrimidine] | 2.8 |  |  | 
0.075 | 0.035 |  | CNC(=O)Nc1ccc(-c2nc(N3CCOCC3)c3cnn(C4CCN(C(=O)c5cccc(OC)c5)CC4)c3n2)cc1 [Example 364, 1-(4-{1-[1-(3-methoxybenzoyl)piperidin-4-yl]-4-morpholin-4-yl-1H-pyrazolo[3,4-d]pyrimidin-6-yl}phenyl)-3-methylurea] | 0.3 |  |  | 
1.27 | 0.52 |  | c1cc2cc(-c3nc(N4CCOCC4)c4cnn(C5CCC(N6CCCC6)CC5)c4n3)ccc2[nH]1 (stereo not drawn) [Compound 151] | 2.3 |  |  | 
0.878 | 0.63 |  | CC(=O)Nc1ccc(-c2nc(N3CCOCC3)c3cnn(C4CCN(C(=O)c5cccnc5)CC4)c3n2)cc1 [Example 159, N-(4-{4-morpholin-4-yl-1-[1-(pyridin-3-ylcarbonyl)piperidin-4-yl]-1H-pyrazolo[3,4-d]pyrimidin-6-yl}phenyl)acetamide] | 2.5 |  |  | 
0.026 | 0.00077 |  | COC(=O)N1CCC(n2ncc3c(N4CCOCC4)nc(-c4ccc(NC(=O)Nc5ccc(CCN6CCCCC6)cc5)cc4)nc32)CC1 [Compound 915, methyl 4-{4-morpholin-4-yl-6-[4-({[4-(2-piperidin-1-ylethyl)phenyl]carbamoyl}amino)phenyl]-1H-pyrazolo[3,4-d]pyrimidin-1-yl}piperidine-1-carboxylate] | 0.025 |  |  | 
2.39 | 0.75 |  | Cc1ncccc1C(=O)N1CCC(n2ncc3c(N4CCOCC4)nc(-c4ccc5[nH]ccc5c4)nc32)CC1 [Example 200, 6-(1H-indol-5-yl)-1-{1-[(2-methylpyridin-3-yl)carbonyl]piperidin-4-yl}-4-morpholin-4-yl-1H-pyrazolo[3,4-d]pyrimidine] | 2 |  |  | 
1.15 | 0.565 |  | COC(=O)N1CCC(n2ncc3c(N4CCOCC4)nc(-c4ccc(NC(=O)Nc5ccccn5)cc4)nc32)CC1 [Compound 736, methyl 4-(4-morpholin-4-yl-6-{4-[(pyridin-2-ylcarbamoyl)amino]phenyl}-1H-pyrazolo[3,4-d]pyrimidin-1-yl)piperidine-1-carboxylate] | 17 |  |  | 
0.583 | 5.5 |  | CC(=O)NCc1cccc(-c2nc(N3CCOCC3)c3cnn(-c4ccccc4)c3n2)c1 [Compound 145] | 21 |  |  | 
0.449 | 1.3 |  | CNCC(=O)N1CCC(n2ncc3c(N4CCOCC4)nc(-c4ccc5[nH]ccc5c4)nc32)CC1 [Compound 96] | 2.8 |  |  | 
0.279 | 4.7 |  | COc1cncc(-c2nc(N3CCOCC3)c3cnn(C)c3n2)c1 [Compound 11] | 5 |  |  | 
0.645 | 2.3 |  | COC(=O)N1CCC(n2ncc3c(N4CCOCC4)nc(-c4ccc(NC(=O)OCCN(C)C)cc4)nc32)CC1 [Compound 904, methyl 4-{6-[4-({[2-(dimethylamino)ethoxy]carbonyl}amino)phenyl]-4-morpholin-4-yl-1H-pyrazolo[3,4-d]pyrimidin-1-yl}piperidine-1-carboxylate] | 7.8 |  |  | 
3.81 | 1.5 |  | CCOC(=O)N1CCC(n2ncc3c(N4CCOCC4)nc(-c4ccc(NC(=O)Nc5ccccn5)cc4)nc32)CC1 [Compound 815, ethyl 4-(4-morpholin-4-yl-6-{4-[(pyridin-2-ylcarbamoyl)amino]phenyl}-1H-pyrazolo[3,4-d]pyrimidin-1-yl)piperidine-1-carboxylate] | 5 |  |  | 
0.042 |  | 0.8 | CNC(=O)Nc1ccc(-c2nc(N3CCOCC3)c3cnn(C4CCN(C(=O)c5cccnc5)CC4)c3n2)cn1 [Compound 725, 1-methyl-3-(5-{4-morpholin-4-yl-1-[1-(pyridin-3-ylcarbonyl)piperidin-4-yl]-1H-pyrazolo[3,4-d]pyrimidin-6-yl}pyridin-2-yl)urea] |  | 1.15 |  | 
0.022 | 0.5 |  | CNC(=O)Nc1ccc(-c2nc(N3CCOCC3)c3cnn(C4CCNCC4)c3n2)cc1 [Compound 584, 1-methyl-3-[4-(4-morpholin-4-yl-1-piperidin-4-yl-1H-pyrazolo[3,4-d]pyrimidin-6-yl)phenyl]urea] | 1.3 |  |  | 
3.42 | 4 |  | CC(C)C(=O)Nc1ccc(-c2nc(N3CCOCC3)c3cnn(C4CCN(Cc5ccccc5)CC4)c3n2)cc1 [Compound 186] | 3.9 |  |  | 
0.23 | 5.7 |  | O=C1CCCN1CCn1ncc2c(N3CCOCC3)nc(-c3cccc(O)c3)nc21 [Compound 164] | 20 |  |  | 
0.692 | 0.7 |  | O=C(Cc1ccccc1)N1CCC(n2ncc3c(N4CCOCC4)nc(-c4ccc5[nH]ccc5c4)nc32)CC1 [Compound 492, 6-(1H-indol-5-yl)-4-morpholin-4-yl-1-[1-(phenylacetyl)piperidin-4-yl]-1H-pyrazolo[3,4-d]pyrimidine] | 3 |  |  | 
0.03 | 3 |  | CNC(=O)Nc1ccc(-c2nc(N3CCOCC3)c3cnn(C4CCN(C(=O)Nc5cccnc5)CC4)c3n2)cc1 [Compound 579, 4-(6-{4-[(methylcarbamoyl)amino]phenyl}-4-morpholin-4-yl-1H-pyrazolo[3,4-d]pyrimidin-1-yl)-N-pyridin-3-ylpiperidine-1-carboxamide] | 2.5 |  |  | 
 |  |  | COC(=O)N1CCC(n2ncc3c(N4CCOCC4)nc(-c4ccc(NC(=O)Oc5ccc(Cl)cc5)cc4)nc32)CC1 [Compound 950, methyl 4-[6-(4-{[(4-chlorophenoxy)carbonyl]amino}phenyl)-4-morpholin-4-yl-1H-pyrazolo[3,4-d]pyrimidin-1-yl]piperidine-1-carboxylate] | 17 |  | 9.01 | 4.9
0.09 |  | 0.045 | CNC(=O)Nc1ccc(-c2nc(N3CCOCC3)c3cnn(C4CCN(Cc5cccnc5Cl)CC4)c3n2)cc1 [Compound 635, 1-[4-(1-{1-[(2-chloropyridin-3-yl)methyl]piperidin-4-yl}-4-morpholin-4-yl-1H-pyrazolo[3,4-d]pyrimidin-6-yl)phenyl]-3-methylurea] |  | 0.11 |  | 
3.09 | 0.78 |  | c1ccc(CCN2CCC(n3ncc4c(N5CCOCC5)nc(-c5ccc6[nH]ccc6c5)nc43)CC2)cc1 [Compound 239, 6-(1H-indol-5-yl)-4-morpholin-4-yl-1-[1-(2-phenylethyl)piperidin-4-yl]-1H-pyrazolo[3,4-d]pyrimidine] | 3.1 |  |  | 
7.77 | 35 |  | CC(C)(C)C(=O)Nc1ccc(-c2nc(N3CCOCC3)c3cnn(C4CCN(Cc5ccccc5)CC4)c3n2)cc1 [Compound 187] | 40 |  |  | 
6.66 |  | 39 | Nc1ccnc(-c2nc(N3CCOCC3)c3cnn(C4CCN(C(=O)c5cccnc5)CC4)c3n2)c1 [Compound 678, 2-{4-morpholin-4-yl-1-[1-(pyridin-3-ylcarbonyl)piperidin-4-yl]-1H-pyrazolo[3,4-d]pyrimidin-6-yl}pyridin-4-amine] |  | > 60 |  | 
0.148 |  | 2.2 | CNC(=O)Nc1ccc(-c2nc(N3CCOCC3)c3cnn(C4CCN(C(=O)NC)CC4)c3n2)cc1 [Compound 722, N-methyl-4-(6-{4-[(methylcarbamoyl)amino]phenyl}-4-morpholin-4-yl-1H-pyrazolo[3,4-d]pyrimidin-1-yl)piperidine-1-carboxamide] |  | 1.8 |  | 
8.32 | 1.95 |  | COc1cccc(C(=O)Nc2ccc(-c3nc(N4CCOCC4)c4cnn(C5CCCCO5)c4n3)cc2)c1 (stereo not drawn) [Compound 273, 3-methoxy-N-{4-[4-morpholin-4-yl-1-(tetrahydro-2H-pyran-2-yl)-1H-pyrazolo[3,4-d]pyrimidin-6-yl]phenyl}benzamide] | 60 |  |  | 
0.453 | 0.0008 |  | CCOC(=O)N1CCC(n2ncc3c(N4CCOC[C@H]4C)nc(-c4ccc(NC(=O)Nc5cccnc5)cc4)nc32)CC1 [Compound 892, ethyl 4-(4-[(3R)-3-methylmorpholin-4-yl]-6-{4-[(pyridin-3-ylcarbamoyl)amino]phenyl}-1H-pyrazolo[3,4-d]pyrimidin-1-yl)piperidine-1-carboxylate] | 0.07 |  |  | 
